Test [1] concerns the target T1, Human Indoleamine 2,3-dioxygenase (IDO) (Homo sapiens, UniProt P14902).
T1 construct: His tag (N); made in house; host or cells: E. coli
The test can be described thus: Human IDO enzymatic assay (kynurenine level). The test is classed as biochemical. The note with it: 6 nM IDO, 10 μM L-Trp; geometric mean; read-out: IDO1 GMean: IC50 (μM) (Biochemical Assay). The procedure:
(§1) Human Indoleamine 2,3-dioxygenase (IDO) and Tryptophan 2,3-dioxygenase (TDO) enzymatic assay
(§2) Human IDO or TDO with N-terminal His tag is purified in E. coli. The IDO enzymatic assay is performed using 6 nM IDO and 10 μM L-Trp in the presence of 10 mM ascorbic acid, 5 μM methylene blue, 100 nM catalase and 0.01% Tween 20 in 50 mM sodium phosphate buffer (pH 6.5). 19 μL of above reaction mixture is added to wells of 384 well reaction plate containing […] of various concentrations of test compound or DMSO vehicle and incubated for 20 minutes at room temperature. The TDO enzymatic reaction assay is performed using 1 nM TDO and 350 μM L-Trp in the presence of 10 mM ascorbic acid, 0.4 μM methylene blue, 100 nM catalase and 0.01% Tween 20 in 50 mM sodium phosphate buffer (pH 6.5). 19 μL of above reaction mixture is added to wells of 384 well reaction plate containing 1 μL of various concentrations of test compound or DMSO vehicle and incubated for 70 minutes at room temperature. 16 wells containing all the components of reaction mixture and 5% DMSO serve as high control. 16 well containing all the components except enzyme of reaction mixture and 5% DMSO serves as low control. Both IDO and TDO enzymatic reactions are stopped by addition of […] of 30% TCA and incubated 30 minutes at 50° C. to hydrolyze N-formylkynurenine produced by IDO or TDO to kynurenine. Upon measuring the kynurenine level, the percentage inhibition is calculated at individual concentrations relative to high and low controls. The data is analyzed by using nonlinear regression to generate IC50 values.

Test [2] concerns the target T2, Human Tryptophan 2,3-dioxygenase (TDO) (Homo sapiens, UniProt P48775).
T2 construct: His tag (N); made in house; host or cells: E. coli
The test can be described thus: Human TDO enzymatic assay (kynurenine level). The test is classed as biochemical. The following applies: 1 nM TDO, 350 μM L-Trp; geometric mean; read-out: TDO GMean: IC50 (μM) (Biochemical Assay). Here is the method:
as §1, §2

T1 sequence (P14902 whole entry): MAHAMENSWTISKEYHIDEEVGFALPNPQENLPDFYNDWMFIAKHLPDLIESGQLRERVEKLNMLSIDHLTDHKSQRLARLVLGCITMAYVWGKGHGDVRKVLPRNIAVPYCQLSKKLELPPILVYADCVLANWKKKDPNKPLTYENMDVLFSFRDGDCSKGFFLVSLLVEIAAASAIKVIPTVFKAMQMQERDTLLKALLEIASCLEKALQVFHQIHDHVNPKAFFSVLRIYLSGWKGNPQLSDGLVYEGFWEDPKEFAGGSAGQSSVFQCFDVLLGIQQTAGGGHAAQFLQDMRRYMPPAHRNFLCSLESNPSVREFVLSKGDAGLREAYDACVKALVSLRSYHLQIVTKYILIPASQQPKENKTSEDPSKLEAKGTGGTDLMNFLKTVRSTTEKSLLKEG
T2 sequence (P48775 whole entry): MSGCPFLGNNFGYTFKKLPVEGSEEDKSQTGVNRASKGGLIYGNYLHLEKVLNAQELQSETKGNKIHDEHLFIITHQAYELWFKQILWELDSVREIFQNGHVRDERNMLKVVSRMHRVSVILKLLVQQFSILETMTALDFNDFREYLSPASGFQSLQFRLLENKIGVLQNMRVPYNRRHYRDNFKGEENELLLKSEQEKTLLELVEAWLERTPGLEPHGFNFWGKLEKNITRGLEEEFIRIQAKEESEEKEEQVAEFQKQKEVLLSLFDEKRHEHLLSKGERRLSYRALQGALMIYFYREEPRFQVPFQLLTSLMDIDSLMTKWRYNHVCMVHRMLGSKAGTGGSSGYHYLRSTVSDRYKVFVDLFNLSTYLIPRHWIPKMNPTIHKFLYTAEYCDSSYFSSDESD

Take `CC(C)(C1CCN(C(=O)Nc2ccc(Cl)nc2)CC1)C(O)c1cc(Cl)cc2cn[nH]c12` (stereo not drawn) [Compound P-0604, 4-(1-(5-chloro-1H-indazol-7-yl)-1-hydroxy-2-methylpropan-2-yl)-N-(6-chloropyridin-3-yl)piperidine-1-carboxamide]: the IC50 in test [1] and in test [2] was 0.0001 to 10 µM in each case.

Regarding `OC(c1cccc(C(F)(F)F)c1)c1cccc2cncn12` (stereo not drawn) [Compound P-0078, imidazo[1,5-a]pyridin-5-yl(3-(trifluoromethyl)phenyl)methanol], the figures for the IC50 in test [1] and in test [2] were 0.0001 to 10 µM and 10 to 100 µM, respectively.

With `O=C(Cc1ccc(Cl)c(F)c1)N1CCC(C(F)(F)[C@H](O)c2cc(Cl)cc3cn[nH]c23)CC1` [Compound P-0571, (R)-1-(4-(2-(5-chloro-1H-indazol-7-yl)-1,1-difluoro-2-hydroxyethyl)piperidin-1-yl)-2-(4-chloro-3-fluorophenyl)ethan-1-one], the IC50 in test [1] and in test [2] was 0.0001 to 10 µM each time.

For `O=C(CN1CCOCC1)N1CCC(C(F)(F)[C@H](O)c2c3c(cc4cn[nH]c24)CC3)CC1` [Compound P-0622, (R)-1-(4-(2-(5,6-dihydro-1H-cyclobuta[f]indazol-7-yl)-1,1-difluoro-2-hydroxyethyl)piperidin-1-yl)-2-morpholinoethan-1-one], the half-inhibitory concentration (IC50) in test [1] and in test [2] was 0.0001 to 10 µM each time.

With `O=C(Nc1ccc(F)cc1)N1CCC(C(F)(F)[C@H](O)c2c3c(cc4cn[nH]c24)CC3)CC1` [Compound P-0637, (R)-4-(2-(5,6-dihydro-1H-cyclobuta[f]indazol-7-yl)-1,1-difluoro-2-hydroxyethyl)-N-(4-fluorophenyl) piperidine-1-carboxamide], the half-maximal inhibitory concentration (IC50) in test [1] and in test [2] was 0.0001 to 10 µM each time.

As to `CC(C)(C1CCN(C(=O)NCC2(O)COC2)CC1)[C@H](O)c1cc(Cl)cc2cn[nH]c12` [Compound P-0667, (S)-4-(1-(5-chloro-1H-indazol-7-yl)-1-hydroxy-2-methylpropan-2-yl)-N-((3-hydroxyoxetan-3-yl)methyl)piperidine-1-carboxamide], the IC50 in test [1] and in test [2] was 0.0001 to 10 µM throughout.

Turning to `N#Cc1ccc(NC(=O)N2CCC(C(F)(F)[C@H](O)c3c4c(cc5cn[nH]c35)CC4)CC2)cc1` [Compound P-0638, (R)-N-(4-cyanophenyl)-4-(2-(5,6-dihydro-1H-cyclobuta[f]indazol-7-yl)-1,1-difluoro-2-hydroxyethyl) piperidine-1-carboxamide], the 50% inhibitory concentration (IC50) in test [1] and in test [2] was 0.0001 to 10 µM in each case.

On to `CC(C)(C1CCN(C(=O)NCc2ccc(F)cn2)CC1)[C@H](O)c1cc(Cl)cc2cn[nH]c12` [Compound P-0601, (S)-4-(1-(5-chloro-1H-indazol-7-yl)-1-hydroxy-2-methylpropan-2-yl)-N-((5-fluoropyridin-2-yl)methyl) piperidine 1-carboxamide], for which the IC50 in test [1] and in test [2] was 0.0001 to 10 µM throughout.

Take `COc1ccc(NC(=O)N2CCC(C(C)(C)C(O)c3cc(Cl)cc4cn[nH]c34)CC2)cn1` (stereo not drawn) [Compound P-0605, 4-(1-(5-chloro-1H-indazol-7-yl)-1-hydroxy-2-methylpropan-2-yl)-N-(6-methoxypyridin-3-yl)piperidine-1-carboxamide]: the concentration for half-maximal inhibition (IC50) in test [1] and in test [2] was 0.0001 to 10 µM each time.

With `CC(C)(C1CCN(C(=O)C2(F)CC2)CC1)[C@H](O)c1cc(Cl)cc2cn[nH]c12` [Compound P-0659, (S)-(4-(1-(5-chloro-1H-indazol-7-yl)-1-hydroxy-2-methylpropan-2-yl)piperidin-1-yl)(1-fluorocyclopropyl) methanone], the IC50 in test [1] and in test [2] was 0.0001 to 10 µM each time.

Turning to `CC(C)(C1CCN(C(=O)CN2CCS(=O)(=O)CC2)CC1)[C@H](O)c1cc(Cl)cc2cn[nH]c12` [Compound P-0500, (S)-1-(4-(1-(5-chloro-1H-indazol-7-yl)-1-hydroxy-2-methylpropan-2-yl)piperidin-1-yl)-2-(1,1-dioxidothiomorpholino) ethan-1-one], in test [1], the 50% inhibitory concentration (IC50) – broadly, the point on the concentration scale where inhibition reaches its midpoint – fell in the range of 0.0001 to 10 µM.

The values above are taken from patent US10508085B2, “Compounds and methods for IDO and TDO modulation, and indications therefor” (Plexxikon Inc., priority 2016, dated 2019).
